Source: PMC5812297, “Specificity and Application of the Lantibiotic Protease NisP” (Frontiers in Microbiology, 2018)
Ends that are not written are not given here.

How the values were obtained:
engineered soluble NisP = experiment: Enzyme kinetic assay of NisP cleavage of prenisin variants (Lineweaver–Burk, RP-HPLC); assay type: biochemical, Lactococcus lactis; conditions: for Kcat/Km in comparison, in words: among the four prenisin variants, or vs literature
Protocol: In order to investigate the substrate specificity and kinetic parameters of NisP, a set of mutants of P4-P1 was created. We used wild-type prenisin (ASPR), nis-Peng (VSLR), nis-Thrombin (AVPR), and nis-Factor Xa (IEGR) as substrates. The concentration of NisP was determined by the BCA assay with bovine serum albumin as standard. The conditions of cleavage reaction were optimized with 100 mM Tris buffer containing 5 mM CaCl2 (pH 6.0). The reaction was stopped at the indicated times adding TFA to a final concentration of 1%. The reaction was performed in 100 μl with 6.5 ng/ml NisP at 37°C. 1% TFA was added to terminate the reaction at 5 different time points (5, 15, 30, 45, and 60 min). All the samples were analyzed by analytical RP-HPLC as indicated before (Mu et al., [2015]) and measuring the absorbance at 205 nm. For each substrate concentration, the initial velocity was calculated on the basis of the peak area of released nisin vs. time. The kinetic parameters were determined by fitting the calculated enzyme activities at different substrate concentrations (ranging from 1 to 25 μM) to a linear regression curve on Lineweaver–Burk double reciprocal plot (Lineweaver and Burk, [1934]).

NisP = experiment: Cleavage of nisin mutants by NisP in crude supernatants or purified peptide, masses by MALDI-TOF; assay type: biochemical, Lactococcus lactis; conditions: His-tagged purified NisP, overnight 37°C, ratio 1000:1, culture pH (4.5–5.0) or pH 6.0, MALDI-TOF
Protocol: Alternatively, supernatants containing nisin mutant peptides produced after induction were divided into two fractions; one in which the pH was adjusted to 6.0 and the other one where the pH was the actual fermentation pH. They were incubated overnight at 37°C with or without His-tagged purified NisP at a ratio of 1000:1. After the incubation, the supernatants were precipitated using TCA and resuspended in 1/20 volume 0.05% acetic acid. For the mutants that were produced in lower amounts, larger volumes were induced and the peptides were purified by cationic exchange chromatography as described before and separated by reverse phase chromatography using a Jupiter 4 μm Proteo 90 Å 250 × 4.6 mm C12 analytical column (Phenomenex). The column was equilibrated in 20% organic solvent (acetonitrile 0.1% TFA) before the sample injection. It was washed for 5 min before applying a linear gradient from 20 to 50% organic solvent in 20 min. 1 μl of each collected peak was used for mass-spectrometry determination.
Mass spectrometry analysis of the samples was performed by matrix-assisted laser desorption/ionization (MALDI) time-of-flight (ToF) in an ABI Voyager DE Pro (Applied Biosystems) operating in linear mode as previously described using external calibration (van Heel et al., [2013]). Briefly, 1 μl sample was spotted, dried and washed with 5 μL Milli-Q water, on the target. Next, 1 μl of α-cyano-4-hydroxycinnamic acid 5 mg/ml (Sigma-Aldrich) was spotted on the sample.
We designed a set of nisin mutants to investigate the specificity of NisP (Figure 4). For all these mutants, supernatants were collected after induction and divided into three fractions. NisP was added to two of these fractions, one maintaining the pH of the culture (4.5–5.0) and the other fraction was adjusted to pH 6.0. The third fraction was used as an untreated control. After cleavage, the masses of the peptides were monitored by MALDI-TOF (Table 2).

[1] = tested on: L. lactis NZ9000 (pNZnisP-8H); experiment: Antimicrobial activity of purified prelantibiotics against NisP producing sensor strain; assay type: cell-based, Lactococcus lactis; conditions: no NisP, data not shown
Protocol: Activity tests were performed by well-diffusion assay as indicated by van Heel et al. ([2013]). L. lactis NZ9000 transformed with the appropriate plasmids or Micrococcus flavus were used as sensor strains as specified in each figure. The cleavage of nisin by NisP after SDS-PAGE was monitored washing the gel according to Bhunia et al. ([1987]) and covering with an overlay of GM17 soft agar inoculated with NZ9000 (pIL3BTC pNZnisA-E3) induced with 1 ng/ml nisin. The overlay was incubated for 16 h, after which the presence of inhibition zones was evaluated.
The substrate tolerance of soluble NisP was tested using a set of different lantibiotics. These were produced using the nisin modification machinery encoded in NZ9000 (pIL3BTC pNZE3-mutant) and purified by cationic exchange chromatography. For this purpose, NZ9000 (pNZ-nisP-8H) was used as a sensor strain and tested using gallidermin (van Heel et al., [2013]) and two lantibiotics detected in the genome of Streptococcus pneumoniae, PneA1 and PneA2 encoded in the genes spr1765 and spr1766, respectively, which were heterologously expressed in L. lactis fused to the nisin leader peptide (Majchrzykiewicz et al., [2010]) (Figure 5). […] The activity was restored when a strain producing soluble NisP was employed.
Figure 5 Antimicrobial activity of purified modified lantibiotics gallidermin, 1215 and 1268 against L. lactis NZ9000 (pNZnisP-8H). […]

sensor bacteria = conditions: only antimicrobial activity as evidence, ref Kuipers et al., [1995]; cited from earlier work
Excerpt: It was anticipated that the binding of dehydrobutyrine in position P2′ was less important than the interaction of Ile in position P1′ with a hydrophobic groove in NisP (Siezen et al., [1995]). Some mutants like I1W were previously shown to be cut by NisP using only the antimicrobial activity as evidence (Kuipers et al., [1995]). […] We could observe that an ...

prenisin = conditions: cell extracts of induced E. coli, ref van der Meer et al., [1993]; cited from earlier work
Excerpt: During the production of nisin, the protease NisP is exported and anchored to the cell wall in a sortase-mediated manner. In previous attempts to characterize the specificity of NisP, the in vivo cleavage was based on the detection of the antimicrobial activity and the detection of mature lantibiotic compared to that of the prelantibiotic (van der Meer et al., [1994]). The activity in vitro could be confirmed using membrane preparations of cells expressing NisP bound to the cell wall, which limited the assays. Therefore, we engineered a soluble NisP variant that could facilitate this task. Our ...

[2] = 100 mM Tris 5 mM CaCl2 pH 6.0, 37°C, 6.5 ng/ml NisP, substrate 1 to 25 μM, Lineweaver–Burk, mean value ± standard deviation

Row | Molecule | Kcat/Km (catalytic efficiency) (engineered soluble NisP; 100 mM Tris 5 mM CaCl2 pH 6.0, 37°C, 6.5 ng/ml NisP) [M⁻¹ s⁻¹] | Km (engineered soluble NisP; 100 mM Tris 5 mM CaCl2 pH 6.0, 37°C, 6.5 ng/ml NisP, substrate 1 to 25 μM, 5-60 min, RP-HPLC 205 nm, Lineweaver–Burk, mean value ± standard deviation) [µM] | Kcat (engineered soluble NisP; [2]) [s⁻¹] | Vmax (engineered soluble NisP; [2]) [µmol/mg/min] | Kcat/Km in comparison, in words (engineered soluble NisP; listed as wild-type nisin) | Kcat/Km in comparison, in words (engineered soluble NisP; listed as wild-type prenisin (ASPR)) | Cleavage by NisP (NisP) | Antimicrobial activity in the absence of NisP [1] | Cleavage by NisP (earlier work) (sensor bacteria) | Activation of prenisin (prenisin)
1 | WT Prenisin (ASPR): fully modified nisin with its leader peptide (ASPR cleavage site); inactive until leader is removed (MSTKDFNLDLVSVSKKDSGASPRITSISLCTPGCKTGALMGCNMKTATCHCSIHVSK; not fully specified (bridges); cysteine pairing not given here; also: fully modified nisin, modifications not placed; UniProt P13068 1-57, looked up) | 1.71e+06 | 0.73 ± 0.08 | 1.25 ± 0.07 | 1.79 ± 0.10 | in line with previous results in literature | highest catalytic efficiency | fully cleaved | none of the prelantibiotics tested, not even prenisin, was active | – | –
2 | nisin I1W: Nisin I1W mutant (MSTKDFNLDLVSVSKKDSGASPRWTSISLCTPGCKTGALMGCNMKTATCHCSIHVSK; ends and bridges not checked; cysteine pairing not given here; UniProt P13068 1-57, looked up, variant I1W) | – | – | – | – | – | – | fully processed | – | cut by NisP | –
3 | cell wall attached NisP: full length NisP expressed in E. coli (van der Meer et al., 1993) (protein, UniProt Q07596 1-682, looked up, full-length) MKKILGFLFIVCSLGLSATVHGETTNSQQLLSNNINTELINHNSNAILSSTEGSTTDSINLGAQSPAVKSTTRTELDVTGAAKTLLQTSAVQKEMKVSLQETQVSSEFSKRDSVTNKEAVPVSKDELLEQSEVVVSTSSIQKNKILDNKKKRANFVTSSPLIKEKPSNSKDASGVIDNSASPLSYRKAKEVVSLRQPLKNQKVEAQPLLISNSSEKKASVYTNSHDFWDYQWDMKYVTNNGESYALYQPSKKISVGIIDSGIMEEHPDLSNSLGNYFKNLVPKGGFDNEEPDETGNPSDIVDKMGHGTEVAGQITANGNILGVAPGITVNIYRVFGENLSKSEWVARAIRRAADDGNKVINISAGQYLMISGSYDDGTNDYQEYLNYKSAINYATAKGSIVVAALGNDSLNIQDNQTMINFLKRFRSIKVPGKVVDAPSVFEDVIAVGGIDGYGNISDFSNIGADAIYAPAGTTANFKKYGQDKFVSQGYYLKDWLFTTANTGWYQYVYGNSFATPKVSGALALVVDKYGIKNPNQLKRFLLMNSPEVNGNRVLNIVDLLNGKNKAFSLDTDKGQDDAINHKSMENLKESRDTMKQEQDKEIQRNTNNNFSIKNDFHNISKEVISVDYNINQKMANNRNSRGAVSVRSQEILPVTGDGEDFLPALGIVCISILGILKRKTKN | – | – | – | – | – | – | – | – | – | could activate prenisin
